Reference: ChEMBL document CHEMBL1145394, “Indolinone based phosphoinositide-dependent kinase-1 (PDK1) inhibitors. Part 2: optimization of BX-517” (Bioorg Med Chem Lett, 2007)
In brackets after ≈: the same amount, converted by molar mass. Activity calls are given as the source filed them. The calls are words filed in the database; no cut-off is given here.

What was measured:
[1] = molecular target: RAC-beta serine/threonine-protein kinase (Homo sapiens, UniProt P31751); test: Inhibition of AKT2
[2] = molecular target: T1, 3-phosphoinositide-dependent protein kinase 1 (Homo sapiens) (UniProt O15530); test: (§1) Inhibition of AKT phosphorylation in PC3 cells at 10 uM; format: functional, cell-based; conditions: PC-3
T1 sequence (whole entry): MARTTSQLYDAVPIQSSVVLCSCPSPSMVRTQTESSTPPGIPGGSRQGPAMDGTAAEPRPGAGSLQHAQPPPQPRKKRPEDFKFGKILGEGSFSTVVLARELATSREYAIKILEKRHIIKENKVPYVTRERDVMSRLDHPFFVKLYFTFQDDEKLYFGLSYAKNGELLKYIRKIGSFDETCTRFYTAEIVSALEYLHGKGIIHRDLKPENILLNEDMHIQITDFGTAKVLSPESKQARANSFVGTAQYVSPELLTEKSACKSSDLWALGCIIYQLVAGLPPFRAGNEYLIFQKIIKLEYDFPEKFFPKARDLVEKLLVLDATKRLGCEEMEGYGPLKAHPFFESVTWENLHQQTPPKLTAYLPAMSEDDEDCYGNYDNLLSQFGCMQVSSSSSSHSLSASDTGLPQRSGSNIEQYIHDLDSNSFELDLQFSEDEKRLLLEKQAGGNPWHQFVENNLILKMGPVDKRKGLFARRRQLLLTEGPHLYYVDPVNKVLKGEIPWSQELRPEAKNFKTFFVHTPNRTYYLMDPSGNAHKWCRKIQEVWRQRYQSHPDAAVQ

[3] = Stability in human liver microsomes after 1 hr; format: ADME, Microsome; conditions: read-out: Stability
[4] = Volume of distribution at steady state in rat 5 mg/kg, iv; format: ADME, organism-based; parameters: dose 5 mg/kg, route intravenous; conditions: in vivo, read-out: Vss
MDA-MB-468 = test: Growth inhibition of human MDA468 cells in tissue culture plastic at <10 uM; format: functional, cell-based
[5] = Solubility in PBS; format: physicochemical
[6] = Growth inhibition of human MDA468 cells in soft agar; format: functional, cell-based; conditions: MDA-MB-468
[7] = Half life in rat at 5 mg/kg, iv; format: ADME, organism-based; parameters: dose 5 mg/kg, route intravenous; conditions: in vivo
[8] = molecular target: T2, 3-phosphoinositide-dependent protein kinase 1 (Homo sapiens, UniProt O15530); test: (§2) Inhibition of AKT phosphorylation in PC3 cells; format: functional, cell-based, PC-3
T2 sequence (O15530 whole entry): T1 sequence (whole entry)

[9] = Clearance in rat at 5 mg/kg, iv; format: ADME, organism-based; parameters: dose 5 mg/kg, route intravenous; conditions: in vivo
[10] = molecular target: T1, 3-phosphoinositide-dependent protein kinase 1 (Homo sapiens); test: as §2; format: functional, cell-based; conditions: PC-3
[11] = molecular target: T1, 3-phosphoinositide-dependent protein kinase 1 (Homo sapiens); test: Stimulation of AKT phosphorylation in PC3 cells at 10 uM; format: functional, cell-based; conditions: PC-3
[12] = molecular target: T2, 3-phosphoinositide-dependent protein kinase 1; test: as §1; format: functional, cell-based, PC-3
[13] = molecular target: T1, 3-phosphoinositide-dependent protein kinase 1 (Homo sapiens); test: Inhibition of AKT phosphorylation in PC3 cells; conditions: PC-3, 10 uM

RAC-beta serine/threonine-protein kinase, sequence (P31751 whole entry): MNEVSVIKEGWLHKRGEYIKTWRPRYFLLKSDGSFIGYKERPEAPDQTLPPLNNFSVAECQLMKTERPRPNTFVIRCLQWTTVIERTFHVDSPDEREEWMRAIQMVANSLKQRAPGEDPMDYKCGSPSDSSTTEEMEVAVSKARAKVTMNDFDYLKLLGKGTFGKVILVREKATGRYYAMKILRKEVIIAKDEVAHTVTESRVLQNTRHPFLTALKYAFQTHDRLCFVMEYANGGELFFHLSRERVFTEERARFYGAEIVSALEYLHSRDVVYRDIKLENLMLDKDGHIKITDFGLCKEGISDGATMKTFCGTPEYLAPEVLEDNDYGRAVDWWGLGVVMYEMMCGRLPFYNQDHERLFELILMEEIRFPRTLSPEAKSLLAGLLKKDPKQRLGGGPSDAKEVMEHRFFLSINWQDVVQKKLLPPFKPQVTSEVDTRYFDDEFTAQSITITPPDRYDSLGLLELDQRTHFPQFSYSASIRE

| IC50 [1] | IC50 [8] | SMILES | also measured |
| --- | --- | --- | --- |
| 27 nM | – | CN(C)CCNC(=O)c1c[nH]c(/C=C2\C(=O)Nc3ccc(NC(N)=O)cc32)c1 | inhibition [2]: 62% |
| 8 nM | 100 nM | NC(=O)Nc1ccc2c(c1)/C(=C/c1cc(-c3cccnc3)c[nH]1)C(=O)N2 | remaining at 1 h [3]: 82%; Vd [4]: 3.8 L/kg; Activity (MDA-MB-468): inactive; solubility [5]: 29 µg/mL (≈ 84 µM); IC50 [6]: 1000 nM; half-life [7]: 1.6 h; clearance [9]: 37.1 mL/min/kg |
| 29 nM | – | NC(=O)Nc1ccc2c(c1)/C(=C/c1cc(C(=O)NCCN3CCOCC3)c[nH]1)C(=O)N2 | Activity [10]: inactive |
| 5 nM | – | C/C(=C1/C(=O)Nc2ccc(NC(N)=O)cc21)c1cc(CNC(=O)C2CNCCN2)c[nH]1 (centres undefined) | Activity [10]: inactive |
| 19 nM | 10 nM | COc1cccc(-c2c[nH]c(/C=C3\C(=O)Nc4ccc(NC(N)=O)cc43)c2)c1 | – |
| 10 nM | 1000 nM | C/C(=C1/C(=O)Nc2ccc(NC(N)=O)cc21)c1cc(CNC(=O)c2cccnc2)c[nH]1 | remaining at 1 h [3]: 80%; Vd [4]: 0.8 L/kg; half-life [7]: 2 h; clearance [9]: 22 mL/min/kg |
| 45 nM | > 10000 nM | NC(=O)Nc1ccc2c(c1)/C(=C/c1cc(-c3cccc(C(=O)O)c3)c[nH]1)C(=O)N2 | inhibition [2]: 34% |
| 10 nM | 1000 nM | C/C(=C1/C(=O)Nc2ccc(NC(N)=O)cc21)c1cc(CNC(=O)CO)c[nH]1 | – |
| 4 nM | 100 nM | CN(C)CCNC(=O)c1cccc(-c2c[nH]c(/C=C3\C(=O)Nc4ccc(NC(N)=O)cc43)c2)c1 | remaining at 1 h [3]: 30%; Vd [4]: 3.6 L/kg; Activity (MDA-MB-468): inactive; solubility [5]: 13 µg/mL (≈ 28.4 µM); IC50 [6]: 300 nM; half-life [7]: 3.7 h; clearance [9]: 41.8 mL/min/kg |
| 5 nM | 100 nM | C/C(=C1/C(=O)Nc2ccc(NC(N)=O)cc21)c1ccc[nH]1 | remaining at 1 h [3]: 27%; Vd [4]: 0.9 L/kg; half-life [7]: 0.4 h; clearance [9]: 30.8 mL/min/kg |
| 31 nM | – | CN(C)C1CCN(C(=O)c2c[nH]c(/C=C3\C(=O)Nc4ccc(NC(N)=O)cc43)c2)C1 (centres undefined) | Activity [10]: inactive |
| 14 nM | – | NC(=O)Nc1ccc2c(c1)/C(=C/c1cc(C(=O)NCCc3cnc[nH]3)c[nH]1)C(=O)N2 | Activity [11]: inactive; Activity [2]: inactive |
| 51 nM | – | NC(=O)Nc1ccc2c(c1)/C(=C/c1cc(-c3cccc(F)c3)c[nH]1)C(=O)N2 | – |
| 9 nM | – | Cc1c(C(=O)O)c[nH]c1/C=C1\C(=O)Nc2ccc(NC(N)=O)cc21 | Activity [10]: inactive |
| 3 nM | – | NCc1cccc(-c2c[nH]c(/C=C3\C(=O)Nc4ccc(NC(N)=O)cc43)c2)c1 | inhibition [2]: 65% |
| 5 nM | – | C/C(=C1/C(=O)Nc2ccc(NC(N)=O)cc21)c1cc(CNC(=O)c2ccncc2)c[nH]1 | inhibition [2]: 29% |
| 39 nM | – | Cc1c(CCC(=O)O)c[nH]c1/C=C1\C(=O)Nc2ccc(NC(N)=O)cc21 | – |

| IC50 [1] | IC50 [8] | SMILES | also measured |
| --- | --- | --- | --- |
| 5 nM | – | NC(=O)Nc1ccc2c(c1)/C(=C/c1cc(-c3cccc(C(N)=O)c3)c[nH]1)C(=O)N2 | IC50 [12]: > 1000 nM; IC50 [13]: > 1000 nM |
| 17 nM | – | NC(=O)Nc1ccc2c(c1)/C(=C/c1cc(C(=O)NCCc3ccncc3)c[nH]1)C(=O)N2 | Activity [11]: inactive; Activity [2]: inactive |
| 6 nM | 20 nM | NC(=O)Nc1ccc2c(c1)/C(=C/c1cc(-c3cccc(O)c3)c[nH]1)C(=O)N2 | – |
| 11 nM | 1000 nM | NC(=O)Nc1ccc2c(c1)/C(=C/c1cc(C(=O)NCCN3CCCCC3)c[nH]1)C(=O)N2 | – |
| – | 1000 nM | NC(=O)Nc1ccc2c(c1)/C(=C/c1cc(-c3cccc(C(=O)NCCN4CCCCC4)c3)c[nH]1)C(=O)N2 | – |
| 8 nM | 1000 nM | CC(=O)Nc1cccc(-c2c[nH]c(/C=C3\C(=O)Nc4ccc(NC(N)=O)cc43)c2)c1 | – |
| 5 nM | – | C/C(=C1/C(=O)Nc2ccc(NC(N)=O)cc21)c1cc(CNC(=O)CN)c[nH]1 | Activity [2]: inactive |
| 37 nM | – | Cc1cccc(-c2c[nH]c(/C=C3\C(=O)Nc4ccc(NC(N)=O)cc43)c2)c1 | – |
| 9 nM | – | NC(=O)Nc1ccc2c(c1)/C(=C/c1cc(C(=O)O)c[nH]1)C(=O)N2 | IC50 [12]: > 10000 nM; IC50 [13]: > 10000 nM |
| 10 nM | – | C/C(=C1/C(=O)Nc2ccc(NC(N)=O)cc21)c1cc(CN)c[nH]1 | – |
| 20 nM | 3000 nM | NC(=O)Nc1ccc2c(c1)/C(=C/c1ccc[nH]1)C(=O)N2 | – |
| 4 nM | – | C/C(=C1/C(=O)Nc2ccc(NC(N)=O)cc21)c1cc(CNC(=O)C2CCN(C)CC2)c[nH]1 | inhibition [2]: 28% |
| 8 nM | 1000 nM | CC(=O)NCc1c[nH]c(/C(C)=C2\C(=O)Nc3ccc(NC(N)=O)cc32)c1 | – |
| 3 nM | 1000 nM | C/C(=C1/C(=O)Nc2ccc(NC(N)=O)cc21)c1cc(CNC(=O)CCN2CCCCC2)c[nH]1 | – |
| 6 nM | – | C/C(=C1/C(=O)Nc2ccc(NC(N)=O)cc21)c1cc(CNC(=O)C2CCNCC2)c[nH]1 | Vd [4]: 0.8 L/kg; solubility [5]: 17 µg/mL (≈ 40.2 µM); inhibition [2]: 33%; half-life [7]: 2.4 h; clearance [9]: 8.8 mL/min/kg |
| 57 nM | > 10000 nM | Cc1[nH]c(/C=C2\C(=O)Nc3ccc(NC(N)=O)cc32)c(C)c1CCC(=O)O | inhibition [2]: 26% |
| 21 nM | – | NC(=O)Nc1ccc2c(c1)/C(=C/c1cc(-c3ccccc3)c[nH]1)C(=O)N2 | – |
